From patent publication US6403794B2, “Substituted 2-amino-4-alkylamino-1,3,5-triazines as herbicides” (Bayer Aktiengesellschaft, priority 1996, dated 2002)

Columns and labels:
Galium [1] = experiment: Post-emergence test; format: in vivo; conditions: greenhouse, 1000 g of ai./ha, after three weeks
Protocol: (§1) Solvent: 5 parts by weight of acetone
(§2) Emulsifier: 1 part by weight of alkylaryl polyglycol ether
(§3) To produce a suitable preparation of active compound, 1 part by weight of active compound is mixed with the stated amount of solvent, the stated amount of emulsifier is added and the concentrate is diluted with water to the desired concentration.
(§4) Test plants which have a height of 5-15 cm are sprayed with the preparation of active compound such that the particular amounts of active compounds desired are applied per unit area. The concentration of the spray liquor is chosen so that the particular amounts of active compound desired are applied in 1000 l of water/ha.
(§5) After three weeks, the degree of damage to the plants is scored visually in % damage, in comparison to the untreated control.
(§6) 0%=no effect (like untreated control)

Abutilon [2] = experiment: Post-emergence test; format: in vivo; conditions: greenhouse, 1000 g of ai./ha, after three weeks
Protocol: as §1, §2, §3, §4, §5, §6

Amaranthus [3] = experiment: Post-emergence test; format: in vivo; conditions: greenhouse, after three weeks; for pest or weed control at 500 g/ha: 500 g of ai./ha
Protocol: as §1, §2, §3, §4, §5, §6

Alopecurus [4] = experiment: Post-emergence test; format: in vivo; conditions: greenhouse, 1000 g of ai./ha, after three weeks
Protocol: as §1, §2, §3, §4, §5, §6

weeds [5] = experiment: Post-emergence test; format: in vivo
Protocol: as §1, §2, §3, §4, §5, §6

Xanthium = experiment: Post-emergence test; format: in vivo; conditions: greenhouse, 1000 g of ai./ha, after three weeks
Protocol: as §1, §2, §3, §4, §5, §6

Setaria [6] = experiment: Post-emergence test; format: in vivo; conditions: greenhouse, after three weeks; for pest or weed control at 500 g/ha: 500 g of ai./ha
Protocol: as §1, §2, §3, §4, §5, §6

Maize = experiment: Pre-emergence test; format: in vivo; conditions: greenhouse, 1000 g of ai./ha, after three weeks
Protocol: as §1, §2, §3
(§7) Seeds of the test plants are sown in normal soil. After about 24 hours, the soil is watered with the preparation of active compound. The amount of water per unit area is advantageously kept constant. The concentration of active compound in the preparation is immaterial, only the application rate of active compound per unit area matters.
(§8) After three weeks, the degree of damage to the plants is scored visually in % damage in comparison to the development of the untreated control.
as §6

Abutilon [7] = experiment: Pre-emergence test; format: in vivo; conditions: Abutilon, 504 h, greenhouse, after three weeks, read-out: degree of damage to the plants (% damage), Abutilon; for pest or weed control at 1000 g/ha: 1000 g of ai./ha; for pest or weed control at 500 g/ha: 500 g of ai./ha
Protocol: as §1, §2, §3, §7, §8, §6

Amaranthus [8] = experiment: Pre-emergence test; format: in vivo; conditions: Amaranthus, 504 h, greenhouse, after three weeks, read-out: degree of damage to the plants (% damage), Amaranthus; for pest or weed control at 1000 g/ha: 1000 g of ai./ha; for pest or weed control at 500 g/ha: 500 g of ai./ha
Protocol: as §1, §2, §3, §7, §8, §6

Sinapis = experiment: Pre-emergence test; format: in vivo; conditions: greenhouse, 1000 g of ai./ha, after three weeks
Protocol: as §1, §2, §3, §7, §8, §6

weeds [9] = experiment: Pre-emergence test; format: in vivo
Protocol: as §1, §2, §3, §7, §8, §6

Ipomoea = experiment: Post-emergence test; format: in vivo; conditions: greenhouse, 500 g of ai./ha, after three weeks
Protocol: as §1, §2, §3, §4, §5, §6

Wheat [10] = experiment: Post-emergence test; format: in vivo; conditions: greenhouse, 500 g of ai./ha, after three weeks
Protocol: as §1, §2, §3, §4, §5, §6

Echinochloa [11] = experiment: Post-emergence test; format: in vivo; conditions: greenhouse, 500 g of ai./ha, after three weeks
Protocol: as §1, §2, §3, §4, §5, §6

Solanum = experiment: Post-emergence test; format: in vivo; conditions: greenhouse, 500 g of ai./ha, after three weeks
Protocol: as §1, §2, §3, §4, §5, §6

Polygonum [12] = experiment: Post-emergence test; format: in vivo; conditions: greenhouse, 500 g of ai./ha, after three weeks
Protocol: as §1, §2, §3, §4, §5, §6

Veronica = experiment: Pre-emergence test; format: in vivo; conditions: greenhouse, 500 g of ai./ha, after three weeks
Protocol: as §1, §2, §3, §7, §8, §6

Digitaria = experiment: Pre-emergence test; format: in vivo; conditions: greenhouse, 500 g of ai./ha, after three weeks
Protocol: as §1, §2, §3, §7, §8, §6

Wheat [13] = experiment: Pre-emergence test; format: in vivo; conditions: greenhouse, 500 g of ai./ha, after three weeks
Protocol: as §1, §2, §3, §7, §8, §6

Echinochloa [14] = experiment: Pre-emergence test; format: in vivo; conditions: greenhouse, 500 g of ai./ha, after three weeks
Protocol: as §1, §2, §3, §7, §8, §6

Datura = experiment: Pre-emergence test; format: in vivo; conditions: greenhouse, 500 g of ai./ha, after three weeks
Protocol: as §1, §2, §3, §7, §8, §6

Polygonum [15] = experiment: Pre-emergence test; format: in vivo; conditions: greenhouse, 500 g of ai./ha, after three weeks
Protocol: as §1, §2, §3, §7, §8, §6

Galium [16] = experiment: Pre-emergence test; format: in vivo; conditions: greenhouse, 1000 g of ai./ha, after three weeks
Protocol: as §1, §2, §3, §7, §8, §6

Alopecurus [17] = experiment: Pre-emergence test; format: in vivo; conditions: greenhouse, 1000 g of ai./ha, after three weeks
Protocol: as §1, §2, §3, §7, §8, §6

Setaria [18] = experiment: Pre-emergence test; format: in vivo; conditions: greenhouse, 1000 g of ai./ha, after three weeks
Protocol: as §1, §2, §3, §7, §8, §6

[19] = Amaranthus, 504 h, read-out: degree of damage to the plants (% damage), Amaranthus
[20] = Setaria, 504 h, read-out: degree of damage to the plants (% damage), Setaria

| SMILES | degree of damage to the plants (% damage), Galium (Galium [1]) [%] | degree of damage to the plants (% damage), Abutilon (Abutilon [2]) [%] | degree of damage to the plants (% damage), Alopecurus (Alopecurus [4]) [%] | activity against weeds (weeds [5]) | degree of damage to the plants (% damage), Xanthium (Xanthium) [%] | pest or weed control at 1000 g/ha (Abutilon [7]) [%] | pest or weed control at 1000 g/ha (Amaranthus [8]) [%] | activity against weeds (weeds [9]) | degree of damage to the plants (% damage), Ipomoea (Ipomoea) [%] | degree of damage to the plants (% damage), Wheat (Wheat [10]) [%] | degree of damage to the plants (% damage), Echinochloa (Echinochloa [11]) [%] | pest or weed control at 500 g/ha (Amaranthus [3]; [19]) [%] | degree of damage to the plants (% damage), Solanum (Solanum) [%] | degree of damage to the plants (% damage), Polygonum (Polygonum [12]) [%] | pest or weed control at 500 g/ha (Setaria [6]; [20]) [%] | degree of damage to the plants (% damage), Veronica (Veronica) [%] | pest or weed control at 500 g/ha (Abutilon [7]) [%] | degree of damage to the plants (% damage), Digitaria (Digitaria) [%] | degree of damage to the plants (% damage), Wheat (Wheat [13]) [%] | degree of damage to the plants (% damage), Echinochloa (Echinochloa [14]) [%] | other results |
| --- | --- | --- | --- | --- | --- | --- | --- | --- | --- | --- | --- | --- | --- | --- | --- | --- | --- | --- | --- | --- | --- |
| CCC(COc1ccccc1)Nc1nc(N)nc(C(F)(F)F)n1 (stereo not shown) [Example 2] | 100 | 100 | 70 | strong activity | 100 | 80 | 100 | strong activity |  |  |  |  |  |  |  |  |  |  |  |  | melting point: 100 °C; pest or weed control at 1000 g/ha (Amaranthus [3]; Amaranthus, 504 h, 1000 g of ai./ha, read-out: degree of damage to the plants (% damage), Amaranthus): 100%; pest or weed control at 1000 g/ha (Setaria [6]; Setaria, 504 h, 1000 g of ai./ha, read-out: degree of damage to the plants (% damage), Setaria): 100%; degree of damage to the plants (% damage), Maize (Maize): 20%; degree of damage to the plants (% damage), Sinapis (Sinapis): 100% |
| CCC(COc1ccccc1)Nc1nc(N)nc(C(F)(F)F)n1 (stereo not shown) [Example 4] | 80 | 100 | 70 | strong activity | 100 |  |  |  |  |  |  |  |  |  |  |  |  |  |  |  | degree of damage to the plants (% damage), Amaranthus (Amaranthus [3]; 1000 g of ai./ha): 100%; degree of damage to the plants (% damage), Setaria (Setaria [6]; 1000 g of ai./ha): 100% |
| CCC(CCc1cccs1)Nc1nc(N)nc(C(F)(F)F)n1 (stereo not shown) [Example 11] |  |  |  | strong activity |  |  |  |  | 100 | 10 | 80 | 100 | 100 | 100 | 95 |  |  |  |  |  |  |
| CCC(CCc1ccsc1)Nc1nc(N)nc(C(F)(F)F)n1 (stereo not shown) [Example 12] |  |  |  | strong activity |  |  |  | strong activity | 100 | 10 | 90 | 100 | 100 | 100 | 95 | 100 | 100 | 80 | 0 | 100 | pest or weed control at 500 g/ha (Amaranthus [8]): 100%; degree of damage to the plants (% damage), Datura (Datura): 100%; degree of damage to the plants (% damage), Polygonum (Polygonum [15]): 100% |
| CCC(CCc1ccsc1)Nc1nc(N)nc(C(C)F)n1 (stereo not shown) [Example 19] |  |  |  | strong activity |  |  |  | strong activity | 100 |  | 100 | 100 | 100 | 100 | 100 | 100 | 100 | 100 | 0 | 100 | pest or weed control at 500 g/ha (Amaranthus [8]): 100%; degree of damage to the plants (% damage), Datura (Datura): 100%; degree of damage to the plants (% damage), Polygonum (Polygonum [15]): 100% |
| CCC(CCc1ccccn1)Nc1nc(N)nc(C(C)F)n1 (stereo not shown) [Example 21] |  |  |  |  |  | 90 | 95 | strong activity |  |  |  |  |  |  |  |  |  |  |  |  | degree of damage to the plants (% damage), Galium (Galium [16]): 80%; degree of damage to the plants (% damage), Alopecurus (Alopecurus [17]): 100%; degree of damage to the plants (% damage), Setaria (Setaria [18]): 90% |
